# Data: patent US20160115540A1, “PRODRUGS AND DRUGS” (Biogen MA Inc., priority 2013, published 2016)
# Counter-ions that a name gives are not always drawn.
# Test system: spleen
# Assay: Transcriptional profiling on Affymetrix GeneChips, single dose, naïve mice: spleen
# Type: in vivo, C57BL/6 mice
# Conditions: for Number of differentially expressed genes identified: Spleen: Naïve, Single Dose; for FC Pdia4 (protein disulfide isomerase associated 4): probe 1416497_PM_at; for FC Aox1 (aldehyde oxidase 1): probe 1419435_PM_at; for FC Osgin1 (oxidative stress induced growth inhibitor 1): probe 1424022_PM_at; for FC Kirrel (kin of IRRE like (Drosophila)): probe 1434797_PM_at; for FC 9130221J17Rik (RIKEN cDNA 9130221J17 gene): probe 1443159_PM_at; for Number of genes, DMF Only / MMF Only: Spleen
# Experimental: Treated mice were sacrificed at 2, 7, or 12 hours. Tissues (liver, spleen, kidney, jejunum, cortex, hippocampus, striatum and whole blood) were collected and analyzed by transcriptional profiling on mouse Affymetrix GeneChips.
# Tissues (liver, spleen, kidney, jejunum, cortex, hippocampus, striatum and whole blood) were collected and analyzed by transcriptional profiling on mouse Affymetrix GeneChips.
# Animals were exposed to CO2 and whole blood collected via cardiac puncture. Two 100 μl aliquots of whole blood were collected in 1.5 mL microcentrifuge tubes and snap frozen in liquid nitrogen. Peripheral (liver, spleen, kidney and jejunum) and CNS brain (cerebellum, hippocampus, striatum and cortex) tissues were harvested and snap frozen in liquid nitrogen, with special care taken to collect tissues of similar size and from the same location. All samples were stored at −80° C. until RNA extraction was conducted.
# For RNA preparation, frozen tissues were placed in 2 mL RNAse-free 96-well blocks with 1.5 mL QIAzol Lysis Reagent (QIAgen) and a 3.2 mm stainless steel bead (BioSpec Products, Bartlesville, Okla.). Tissues were disrupted for four cycles of 45 seconds in a Mini-Beadbeater (Biospec Products). RNA was extracted in chloroform and the aqueous phase was mixed with an equal volume of 70% ethanol. Extracted RNA was applied to RNeasy 96 plates and purified by the spin method according to the manufacturer's protocol (RNeasy 96 Universal Tissue Protocol, QIAgen, Hilden Germany).
# Automated sample amplifications and biotin labelings were carried out using the NuGEN Ovation RNA Amplification system V2 (Cat #3100), Ovation WB reagent (Cat #1300) and Encore Biotin module (Cat #4200) (NuGEN Technologies, Inc, San Carlos, Calif.) according to manufacturer's recommendations using an Arrayplex automated liquid handler (Beckman Coulter, Indianapolis, Ind.). Two micrograms of biotin labeled sscDNA probe were hybridized to Affymetrix GeneChip Affymetrix HT_MG-430_PM plate arrays with modified conditions as described in Allaire et al. Washing and staining of the hybridized arrays were completed as described in the GeneChip Expression analysis technical manual for HT plate arrays using the Genechip® Array Station (Affymetrix, Santa Clara, Calif.) with modifications as described in Allaire et al. The processed GeneChip® plate arrays were scanned using GeneTitan scanner (Affymetrix, Santa Clara, Calif.).
# Affymetrix scans were subject to quality control (QC) measures. These tests included a visual inspection of the distribution of raw signal intensities and an assessment of RNA degradation, relative log expression (RLE), and normalized unsealed standard error (NUSE). All sample scans that passed these QC metrics were included in the analysis.
# All CEL files were subjected to GC-content-based Robust Multi-array Average (GCRMA) normalization (version 2.20.0) (Irizarry R A, et al. Nucleic Acids Res 2003; 31:e15; Li C, et al. Genome Biol 2001; 2:[…]0032). Expression levels were log (base 2) transformed.
# All calculations and analyses were carried out using R (version 2.11.1) and Bioconductor computational tools (Gentleman R. Springer Science+Business Media 2005).
# [1] = 100 mpk, vs Vehicle, 2 h after last dosing
# [2] = 100 mpk, vs Vehicle, 7 h after last dosing
# [3] = 100 mpk, vs Vehicle, 12 h after last dosing
smiles,measurement,setting,value
"COC(=O)/C=C/C(=O)OC [DMF, dimethyl fumarate]",Number of differentially expressed genes identified: Spleen,"100 mpk DMF-vs-100 mpk MMF, 2 h after last dosing",0
same,Number of differentially expressed genes identified: Spleen,"100 mpk DMF-vs-100 mpk MMF, 7 h after last dosing",0
same,Number of differentially expressed genes identified: Spleen,"100 mpk DMF-vs-100 mpk MMF, 12 h after last dosing",0
same,Number of differentially expressed genes identified: Spleen,[1],13
same,Number of differentially expressed genes identified: Spleen,[2],2
same,Number of differentially expressed genes identified: Spleen,[3],0
same,genes in differential expression gene list,"SPLEEN, 100DMF-vs-100MMF, 2 h",None
same,genes in differential expression gene list,"SPLEEN, 100DMF-vs-100MMF, 7 h",None
same,genes in differential expression gene list,"SPLEEN, 100DMF-vs-100MMF, 12 h",None
same,FC Pdia4 (protein disulfide isomerase associated 4),"SPLEEN, 100DMF-vs-Veh, 2 h",−1.60
same,FC Aox1 (aldehyde oxidase 1),"SPLEEN, 100DMF-vs-Veh, 2 h",2.61
same,FC Srxn1 (sulfiredoxin 1 homolog (S. cerevisiae)),"SPLEEN, 100DMF-vs-Veh, 2 h, probe 1419942_PM_at",2.16
same,FC Txnrd1 (thioredoxin reductase 1),"SPLEEN, 100DMF-vs-Veh, 2 h, probe 1421529_PM_a_at",1.55
same,FC Osgin1 (oxidative stress induced growth inhibitor 1),"SPLEEN, 100DMF-vs-Veh, 2 h",1.78
same,"FC Gclc (glutamate-cysteine ligase, catalytic subunit)","SPLEEN, 100DMF-vs-Veh, 2 h, probe 1424296_PM_at",1.76
same,FC Txnrd1 (thioredoxin reductase 1),"SPLEEN, 100DMF-vs-Veh, 2 h, probe 1424486_PM_a_at",2.41
same,FC Txnrd1 (thioredoxin reductase 1),"SPLEEN, 100DMF-vs-Veh, 2 h, probe 1424487_PM_x_at",1.73
same,FC Srxn1 (sulfiredoxin 1 homolog (S. cerevisiae)),"SPLEEN, 100DMF-vs-Veh, 2 h, probe 1426875_PM_s_at",2.02
same,FC Kirrel (kin of IRRE like (Drosophila)),"SPLEEN, 100DMF-vs-Veh, 2 h",−1.54
same,FC 9130221J17Rik (RIKEN cDNA 9130221J17 gene),"SPLEEN, 100DMF-vs-Veh, 2 h",1.52
same,"FC Mafg (v-maf musculoaponeurotic fibrosarcoma oncogene family, protein G (avian))","SPLEEN, 100DMF-vs-Veh, 2 h, probe 1448916_PM_at",1.58
same,FC Srxn1 (sulfiredoxin 1 homolog (S. cerevisiae)),"SPLEEN, 100DMF-vs-Veh, 2 h, probe 1451680_PM_at",1.53
same,FC Srxn1 (sulfiredoxin 1 homolog (S. cerevisiae)),"SPLEEN, 100DMF-vs-Veh, 7 h, probe 1419942_PM_at",1.67
same,FC Srxn1 (sulfiredoxin 1 homolog (S. cerevisiae)),"SPLEEN, 100DMF-vs-Veh, 7 h, probe 1426875_PM_s_at",1.50
same,"Number of genes, DMF Only / MMF Only",,2
same,Aox1 (probe set 1419435_PM_at) differential expression,"spleen, 2 hr",2.61
same,Gclc (probe set 1424296_PM_at) differential expression,"spleen, 2 hr",1.76
same,Kirrel (probe set 1434797_PM_at) differential expression,"spleen, 2 hr",−1.54
same,Mafg (probe set 1448916_PM_at) differential expression,"spleen, 2 hr",1.58
same,Osgin1 (probe set 1424022_PM_at) differential expression,"spleen, 2 hr",1.78
same,Pdia4 (probe set 1416497_PM_at) differential expression,"spleen, 2 hr",−1.60
same,Srxn1 (probe set 1419942_PM_at) differential expression,"spleen, 2 hr",2.16
same,Txnrd1 (probe set 1424486_PM_a_at) differential expression,"spleen, 2 hr",2.41
same,Srxn1 (probe set 1419942_PM_at) differential expression,"spleen, 7 hr",1.67
same,genes in differential expression gene list,"spleen, 100DMF-vs-Veh, 12 h",None
"COC(=O)/C=C/C(=O)O [MMF, monomethyl fumarate]",Number of differentially expressed genes identified: Spleen,[1],12
same,Number of differentially expressed genes identified: Spleen,[2],2
same,Number of differentially expressed genes identified: Spleen,[3],0
same,FC Pdia4 (protein disulfide isomerase associated 4),"SPLEEN, 100MMF-vs-Veh, 2 h",−1.59
same,FC Aox1 (aldehyde oxidase 1),"SPLEEN, 100MMF-vs-Veh, 2 h",2.35
same,FC Srxn1 (sulfiredoxin 1 homolog (S. cerevisiae)),"SPLEEN, 100MMF-vs-Veh, 2 h, probe 1419942_PM_at",2.02
same,FC Txnrd1 (thioredoxin reductase 1),"SPLEEN, 100MMF-vs-Veh, 2 h, probe 1421529_PM_a_at",1.53
same,FC Osgin1 (oxidative stress induced growth inhibitor 1),"SPLEEN, 100MMF-vs-Veh, 2 h",1.83
same,FC Txnrd1 (thioredoxin reductase 1),"SPLEEN, 100MMF-vs-Veh, 2 h, probe 1424486_PM_a_at",2.14
same,FC Srxn1 (sulfiredoxin 1 homolog (S. cerevisiae)),"SPLEEN, 100MMF-vs-Veh, 2 h, probe 1426875_PM_s_at",1.92
same,FC 6330406I15Rik (RIKEN cDNA 6330406I15 gene),"SPLEEN, 100MMF-vs-Veh, 2 h, probe 1426937_PM_at",−1.58
same,FC Kirrel (kin of IRRE like (Drosophila)),"SPLEEN, 100MMF-vs-Veh, 2 h",−1.65
same,FC Armc8 (armadillo repeat containing 8),"SPLEEN, 100MMF-vs-Veh, 2 h, probe 1434951_PM_at",−1.54
same,FC 9130221J17Rik (RIKEN cDNA 9130221J17 gene),"SPLEEN, 100MMF-vs-Veh, 2 h",1.55
same,FC probe 1446490_PM_at (no gene named),"SPLEEN, 100MMF-vs-Veh, 2 h, probe 1446490_PM_at",−1.76
same,FC Srxn1 (sulfiredoxin 1 homolog (S. cerevisiae)),"SPLEEN, 100MMF-vs-Veh, 7 h, probe 1419942_PM_at",1.87
same,FC Srxn1 (sulfiredoxin 1 homolog (S. cerevisiae)),"SPLEEN, 100MMF-vs-Veh, 7 h, probe 1426875_PM_s_at",1.69
same,"Number of genes, DMF Only / MMF Only",,3
same,Aox1 (probe set 1419435_PM_at) differential expression,"spleen, 2 hr",2.35
same,Armc8 (probe set 1434951_PM_at) differential expression,"spleen, 2 hr",−1.54
same,Kirrel (probe set 1434797_PM_at) differential expression,"spleen, 2 hr",−1.65
same,Osgin1 (probe set 1424022_PM_at) differential expression,"spleen, 2 hr",1.83
same,Paip1 (probe set 1425521_PM_at) differential expression,"spleen, 2 hr",−1.56
same,Pdia4 (probe set 1416497_PM_at) differential expression,"spleen, 2 hr",−1.59
same,Rod1 (probe set 1424084_PM_at) differential expression,"spleen, 2 hr",−1.54
same,Srxn1 (probe set 1419942_PM_at) differential expression,"spleen, 2 hr",2.02
same,Txnrd1 (probe set 1424486_PM_a_at) differential expression,"spleen, 2 hr",2.14
same,Srxn1 (probe set 1419942_PM_at) differential expression,"spleen, 7 hr",1.87
same,Srxn1 mRNA fold change vs vehicle,"spleen, 2 hr after single 100 mg/kg oral dose",1.87
